Data from article PMC12633754, “Elastase inhibition by natural flavonoids: mechanistic insights and potential therapeutic applications” (Frontiers in Nutrition, 2025).

Columns and labels:
[1] = molecular target: T1, porcine pancreatic elastase (PPE) (Sus scrofa, UniProt P00772); experiment: Elastase inhibition assay, fluorescent substrate MeOSuc-Ala-Ala-Pro-Val-AMC; format: biochemical; conditions: for IC50: 298 K; for inhibition at 22.5 µM: read-out: Inhibition rate of PPE
T1 construct: purchased Sigma-Aldrich (St. Louis, MO, United States)
T1 sequence (P00772 27-266): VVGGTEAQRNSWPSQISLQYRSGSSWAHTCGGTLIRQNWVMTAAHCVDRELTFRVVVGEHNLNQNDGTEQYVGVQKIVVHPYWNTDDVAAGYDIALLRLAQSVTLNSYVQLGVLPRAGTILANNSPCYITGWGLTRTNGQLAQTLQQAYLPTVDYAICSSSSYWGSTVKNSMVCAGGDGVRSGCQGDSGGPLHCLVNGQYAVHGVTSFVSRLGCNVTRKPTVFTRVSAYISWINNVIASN
Procedure: Elastase was selected as the enzyme target and MeOSuc-Ala-Ala-Pro-Val-AMC as the substrate for the enzymatic reaction. According to the principle of enzyme reactions, an in vitro target enzyme drug screening model was established by measuring the relative fluorescence intensity for drug screening and evaluation. The inhibition rate was measured using a FlexStation3 multifunctional plate reader (Molecular Devices, Shanghai, China). Elastase solution (50 μL, 5 × 10^−7 mol/L) was mixed with a fluorescent substrate (50 μL, 2 × 10^−5 mol/L), and Tris–HCl buffer solution was added to obtain a total volume of 200 μL. […] The excitation wavelength was adjusted to 380 nm, and the emission wavelength was recorded in the range 420–540 nm. A 200 μL buffer solution was used as the blank for reference. The relative fluorescence values of pure enzyme activity were recorded. Four monomer solutions of the same concentration were added separately and their relative fluorescence values were measured under the same conditions. The concentration of each monomer was varied in different samples to obtain IC50 values. Inhibition rate (%) was calculated as follows:
Inhibition rate(%)=RFUPPE−RFUDrugs+PPE/RFUPPE×100% (1)
where the relative fluorescence unit (RFU) PPE refers to the relative fluorescence measured when only PPE and the fluorescent substrate are present without any inhibitors, and RFU Drugs+PPE refers to the relative fluorescence measured when both PPE and the test drug inhibitor are present.

[2] = molecular target: T1, porcine pancreatic elastase (PPE); experiment: UV-vis absorption spectra of PPE with flavonoid; conditions: PPE 5 μM, flavonoid 15 μM, 298 K
Procedure: The UV–vis absorption spectra of porcine pancreatic elastase PPE (2.5 mL) were recorded using a Cary 300 spectrometer (Agilent, San Diego, CA, United States) in a quartz cuvette with a path length of 10 mm. PPE concentration was fixed at 5 μM and the drug concentrations were 0 and 15 μM. Tris–HCl solution (pH 7.6) was used as the blank. The control group was a solution of four flavonoid monomers at a final concentration of 15 μM. The spectra were recorded in the range of 200–500 nm with a slit width of 2 nm at 298 K.

[3] = molecular target: T1, porcine pancreatic elastase (PPE); experiment: Synchronous fluorescence spectra of PPE; conditions: Δλ = 60 nm, PPE 2 μM, flavonoid 0-80 μM, 298 K
Procedure: For the synchronous fluorescence spectroscopy experiments, the configuration of the solution preparation was the same as that used in experiment 2.3. Synchronous fluorescence spectra of PPE-quercetin, PPE-hyperoside, PPE-luteolin, and PPE-luteoloside were recorded at 298 K.

[4] = molecular target: T1, porcine pancreatic elastase (PPE); experiment: Intrinsic fluorescence quenching of PPE: Stern-Volmer, binding constants, thermodynamics; conditions: for Kd: Ka binding constant; for ΔH / ΔS: van't Hoff, 298, 303, 310 K
Procedure: Fluorescence measurements were performed using a model F-7000 fluorescence spectrometer (Hitachi, Tokyo, Japan). Elastase solution (2,000 μL in Tris–HCl buffer solution) was mixed with inhibitor solutions at different concentrations in a 1.0 cm quartz cell at 298, 303, and 310 K. The final concentrations of the four natural flavonoids and elastase were identical to those used to obtain the synchronous fluorescence spectra. The fluorescence emission spectra were recorded within the range of 285–500 nm, following excitation at 280 nm. The excitation and emission slit widths were set as 2.5 nm. The scan speed was 1,200 nm/min and the photomultiplier tube (PMT) voltage was 630 V. Fluorescence intensities were corrected for inner filter and dilution effects before analyzing the binding and quenching data.
To determine the type of fluorescence quenching of the monomer interacting with PPE, the Stern-Volmer equation was used ([20]–[22]):
F0/F=KSV[Q]+1=Kqτ0[Q]+1 (2)
where F0 and F are the fluorescence intensities of PPE before and after the addition of different monomer solutions, respectively, Ksv is the quenching constant, [Q] is the concentration of different drugs, Kq is the quenching rate constant, τ0 is the average fluorescence lifetime of the substance in the absence of a quencher, and τ0 for the general biological macromolecule is 1 × 10^−8 s ([20], [23], [24]).
According to the correction formula, the binding constant (Ka) and number of binding points (n) for the actions of the four monomers and PPE were calculated as follows ([25]–[27]):
lgF0−F/F=nlgKa−nlg1/[Q0]−[P0]F0−F/F0 (3)
where [ Q0 ] and [P0] are the drug and PPE concentrations, respectively.
where K is the binding constant of the interaction, R is the gas constant, ΔH, ΔG, and ΔS are enthalpy, Gibbs energy, and entropy change.

[5] = molecular target: T1, porcine pancreatic elastase (PPE); experiment: Fluorescence resonance energy transfer and binding distance; conditions: [PPE] = [flavonoid] = 10 μM, 298 K
Procedure: The PPE-quercetin, PPE-hyperoside, PPE-luteolin, and PPE-luteoloside binding distances were calculated according to the fluorescence resonance energy transfer theory ([31]–[33]):
J=∑FD(λ)εA(λ)λ^4Δλ/∑FD(λ)Δλ (9)
where k^2 is the dipole moment spatial orientation factor, usually taking the average 2/3; φ is the quantum efficiency of PPE, usually a quantum efficiency of Try residues of 0.15; n is the refractive index of the medium, representing the average of water and organic matter; J is the overlap integral of the absorption spectra and the fluorescence spectra; and ɛA(λ) is the molar extinction coefficient ([34]–[36]).

[6] = molecular target: T1, porcine pancreatic elastase (PPE); experiment: CD spectroscopy, secondary structure of PPE; conditions: PPE 5 μM, flavonoid 2.5 μM, 298 K; for α-helix (%): PPE alone 7.50; for Random coil (%): PPE alone 41.00; for β-sheet (%): PPE alone 51.50
Procedure: The CD spectra of PPE, PPE-quercetin, PPE-hyperoside, PPE-luteolin, and PPE-luteoloside were obtained using an MOS-500 CD spectrometer (Biologic Science Instruments, Seyssinet-Pariset, France). […] Set at a temperature of 298 K. The signal was recorded from 190 to 260 nm using a path length of 1 mm, acquisition duration of 0.5 s, and scanning step of 2 nm. The CD spectra were averaged after performing three scans and correcting for the background value of the phosphate buffer. All results were documented as CD ellipticity in degrees.

[7] = molecular target: T1, porcine pancreatic elastase (PPE); experiment: FT-IR spectra of PPE-monomer complexes; conditions: PPE 10 μM, flavonoid 100 μM
Procedure: FTIR spectra were obtained using the potassium bromide (KBr) compression method with a Nicolet IS-50 spectrometer (Thermo Fisher Scientific, Waltham, MA, United States). […] The sheets were then dried at 45 °C and pressed. Blank background for the PBS buffer sheets. The spectral region between 4,000 and 500 cm^−1 was selected to examine changes in the secondary structure resulting from enzyme-drug interactions. All samples were assayed after drying and the experimental conditions were consistent for each group of assays.

elastase = molecular target: elastase; design: method as in doi:10.19894/j.issn.1000-0518.210248; conditions: elastase inhibition, earlier study ref 61; cited from earlier work

SMILES | IC50 [1] | inhibition at 22.5 µM [1] | KSV Stern-Volmer quenching constant ([4]; 298 K) | Kq quenching rate constant ([4]; 298 K) | n number of binding sites ([4]; 298 K) | KSV Stern-Volmer quenching constant ([4]; 303 K) | Kq quenching rate constant ([4]; 303 K) | n number of binding sites ([4]; 303 K) | ΔG ([4]; 303 K) | KSV Stern-Volmer quenching constant ([4]; 310 K) | Kq quenching rate constant ([4]; 310 K) | n number of binding sites ([4]; 310 K) | ΔG ([4]; 310 K) | ΔH [4] | ΔS [4] | R0 [5] | binding distance r [5] | decrease of α-helical structure [6] | α-helix (%) [6] | amide I band of PPE after addition (from 1638.45) [7] | further results
O=c1c(O[C@@H]2O[C@H](CO)[C@H](O)[C@H](O)[C@H]2O)c(-c2ccc(O)c(O)c2)oc2cc(O)cc(O)c12 [hyperoside] | 31 µM | 41.1% | 5.47 10^4 L•mol^−1 | 5.47 10^12 L•mol^−1•s^−1 | 1.58 | 4.85 10^4 L•mol^−1 | 4.85 10^12 L•mol^−1•s^−1 | 1.56 | -6.874 kcal/mol | 4.78 10^4 L•mol^−1 | 4.78 10^12 L•mol^−1•s^−1 | 1.35 | -6.881 kcal/mol | -6.5753 kcal/mol | −4.108 J/(mol•K) | 1.86 nm | 2.40 nm | 1.20% | 6.30% | 1633.14 cm⁻¹ | blue shift of maximum absorption peak of PPE (275 nm) [2]: 4 nm; red shift of Trp synchronous fluorescence [3]: 7 nm; Kd ([4]; 298 K): 24.6 µM; Kd ([4]; 303 K): 29.6 µM; Kd ([4]; 310 K): 31.3 µM; Random coil (%) [6]: 46.34%; β-sheet (%) [6]: 47.36%
CC(C)(C)C(=O)Oc1ccc(S(=O)(=O)Nc2ccccc2C(=O)NCC(=O)O)cc1 [sivelestat sodium] |  |  |  |  |  |  |  |  |  |  |  |  |  |  |  |  |  |  |  |  | IC50 (elastase): 9.98 µM
O=c1cc(-c2ccc(O)c(O)c2)oc2cc(O)cc(O)c12 [luteolin] | 18.2 µM | 54.3% | 1.15 10^4 L•mol^−1 | 1.15 10^12 L•mol^−1•s^−1 | 0.97 | 1.04 10^4 L•mol^−1 | 1.04 10^12 L•mol^−1•s^−1 | 1.11 | -6.511 kcal/mol | 0.98 10^4 L•mol^−1 | 0.98 10^12 L•mol^−1•s^−1 | 1.17 | -6.52 kcal/mol | -6.0327 kcal/mol | −6.585 J/(mol•K) | 1.97 nm | 2.67 nm | 0.96% | 6.54% | 1632.53 cm⁻¹ | blue shift of maximum absorption peak of PPE (275 nm) [2]: 3 nm; red shift of Trp synchronous fluorescence [3]: 4 nm; Kd ([4]; 298 K): 82.6 µM; Kd ([4]; 303 K): 95.2 µM; Kd ([4]; 310 K): 102 µM
O=c1c(O)c(-c2ccc(O)c(O)c2)oc2cc(O)cc(O)c12 [quercetin] |  | 22.2% | 0.59 10^4 L•mol^−1 | 0.59 10^12 L•mol^−1•s^−1 | 1.13 | 0.58 10^4 L•mol^−1 | 0.58 10^12 L•mol^−1•s^−1 | 0.99 | -5.208 kcal/mol | 0.52 10^4 L•mol^−1 | 0.52 10^12 L•mol^−1•s^−1 | 0.80 | -5.284 kcal/mol | -1.901 kcal/mol | 45.6521 J/(mol•K) | 1.91 nm | 2.82 nm | 1.14% | 6.36% | 1633.59 cm⁻¹ | ΔG ([4]; 298 K): -5.153 kcal/mol; Random coil (%) [6]: 44.59%; β-sheet (%) [6]: 49.05%
O=c1cc(-c2ccc(O)c(O)c2)oc2cc(O[C@@H]3O[C@H](CO)[C@@H](O)[C@H](O)[C@H]3O)cc(O)c12 [luteoloside] | 61.3 µM | 12.2% | 1.79 10^4 L•mol^−1 | 1.79 10^12 L•mol^−1•s^−1 | 0.95 | 1.66 10^4 L•mol^−1 | 1.66 10^12 L•mol^−1•s^−1 | 0.93 | -5.92 kcal/mol | 1.57 10^4 L•mol^−1 | 1.57 10^12 L•mol^−1•s^−1 | 1.07 | -6.042 kcal/mol | -0.6989 kcal/mol | 72.107 J/(mol•K) | 1.99 nm | 2.71 nm | 1.99% | 5.51% | 1634.55 cm⁻¹ | blue shift of maximum absorption peak of PPE (275 nm) [2]: 8 nm; red shift of Trp synchronous fluorescence [3]: 1 nm; ΔG ([4]; 298 K): -5.834 kcal/mol; Kd ([4]; 298 K): 52.4 µM; Kd ([4]; 303 K): 53.8 µM; Kd ([4]; 310 K): 55.2 µM; Random coil (%) [6]: 43.91%; β-sheet (%) [6]: 50.58%
